Measured values reported in US6008041A, “Bovine dipeptidylaminopeptidase 1” (Eli Lilly and Company, priority 1997, dated 1999).
Peptide text beside a SMILES is read from it. * marks the point of attachment. pNA = O=[N+]([O-])c1ccc(N*)cc1; βNA = c1ccc2cc(N*)ccc2c1; Cbz = O=C(OCc1ccccc1)*

Assays:
[1] = system: bDAP 1; assay: Inhibition of GFpNA cleavage by sulfhydryl modifying agents; format: biochemical, bovine; settings: 0.5, 5.0 or 50 mM inhibitor, 15 minutes at room temperature, pH 7; then 4 mM GFpNA pH 3.5, 37° C.
Protocol: (§1) After purification or storage, bDAP 1 enzymatic activity was usually monitored by following the cleavage of the chromogenic substrate GFpNA. Typically the assay was performed by diluting the enzyme at least 11 fold into 1.0 ml of 4 mM GFpNA in 0.05M acetic acid adjusted to pH 3.5. The rate of cleavage of Gly-Phe dipeptide was monitored at 37° C. by measuring the increase in absorbance at 405 nm. One unit of activity leads to a 0.90 OD change per minute under these conditions. Unit/ml estimates can be made assuming an extinction coefficient for free p-nitroanilide (pNA) of 9.9 mM-1 cm-1 at 405 nm.
(§2) The inhibition profile of bDAP 1 toward the substrate GFpNA was compared to that of bovine spleen DAP-I using iodoacetamide and potassium tetrathionate, sulfihydryl modifying agents known to inhibit the activity of bovine spleen DAP-I. Samples of bDAP 1 or bovine spleen DAP-I were incubated for 15 minutes at room temperature in final concentrations of 0, 0.5, 5.0 or 50 mM of either inhibitor at pH 7 in 100 mM Tris buffer. The incubated solutions were then diluted 21-fold with 4 mM GFpNA, pH 3.5. The rate of cleavage was monitored by measuring the increase in absorbance at 405 nm at 37° C. Bovine DAP-I's rate of cleavage of GFpNA was decreased more than 90% by the exposure to 5 mM iodoacetamide and was 95% inhibited by 5 mM potassium tetrathionate.

[2] = system: bDAP 1; assay: Cleavage of RRBNA / Z-RRBNA (fluorescence); format: biochemical, bovine; settings: for ability of the enzyme to cleave the substrate: 0.25 mM substrate, pH 3.5 or pH 5.0, about 15 milliunit/ml enzyme
Protocol: (§3) About 0.25 mM RRBNA or 0.25 mM Z-RRBNA was prepared in either 100 mM acetic acid, pH 3.5, or 100 mM citrate buffer, pH 5.0. To 2 ml of substrate was added bDAP 1 or bovine DAP-I (about 15 milliunit/ml solution). Rates of cleavage (monitoring fluorescence increase at 410 nm with excitation at 340 nm) were monitored. […] The pH optimum for cleavage of RRBNA was probed by monitoring the rate of RRBNA cleavage using a buffer system consisting of 50 mM acetic acid and 50 mM citrate. Various pHs were achieved using HCl or NaOH and 1.5 ml volumes were made 2.0 with 0.5 ml of a 1 mM stock solution of RRBNA (final concentration of about 0.25 mM). bDAP 1 was added (to about 15 mU/ml) and the rates of cleavage were determined.

[3] = target: Bovine DAP-I (Bos taurus, UniProt Q3ZCJ8); assay: Cleavage of RRBNA / Z-RRBNA (fluorescence); format: biochemical; settings: 0.25 mM substrate, pH 3.5 or pH 5.0, about 15 milliunit/ml enzyme
Protocol: as §3

[4] = target: bovine spleen DAP-I (Bos taurus, UniProt Q3ZCJ8); assay: Inhibition of GFpNA cleavage by sulfhydryl modifying agents; format: biochemical; settings: 5 mM inhibitor, 15 minutes at room temperature, pH 7, 100 mM Tris; then diluted 21-fold with 4 mM GFpNA pH 3.5, 37° C., 405 nm; read-out: decrease of rate of cleavage of GFpNA (inhibition)
Protocol: as §1, §2

[5] = system: bDAP 1; assay: pH dependence of GRpNA cleavage; format: biochemical, bovine; settings: below pH 2.5 or above pH 5
Protocol: Four mM GRpNA was prepared in 50 mM acetic acid, 50 mM glycine buffer, pH 5. HCl or NaOH was used to achieve a variety of pHs, from 5.1 to 2.3. To 180 ul of the above pH buffered substrate was added 5 ul bDAP 1 (49 milliunits/ml final). The rate of increase of absorbance at 410 nm was monitored (using a plate-reader) and the rate of increase was compared with the pH of the reaction solution.

Sequence of Bovine DAP-I (Q3ZCJ8 25-134): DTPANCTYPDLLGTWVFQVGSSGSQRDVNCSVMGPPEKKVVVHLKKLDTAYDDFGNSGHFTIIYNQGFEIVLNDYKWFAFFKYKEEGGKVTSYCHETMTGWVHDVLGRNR
Sequence of Bovine DAP-I (Q3ZCJ8 231-463): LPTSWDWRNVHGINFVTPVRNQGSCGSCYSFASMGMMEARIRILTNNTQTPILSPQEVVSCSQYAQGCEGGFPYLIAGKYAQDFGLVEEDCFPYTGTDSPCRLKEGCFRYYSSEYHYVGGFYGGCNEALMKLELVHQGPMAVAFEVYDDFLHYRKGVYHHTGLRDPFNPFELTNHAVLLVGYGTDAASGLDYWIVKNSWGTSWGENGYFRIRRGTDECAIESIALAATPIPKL
Sequence of bovine spleen DAP-I (Q3ZCJ8 25-134): as the sequence (Q3ZCJ8 25-134) above
Sequence of bovine spleen DAP-I (Q3ZCJ8 231-463): as the sequence (Q3ZCJ8 231-463) above

Structure (SMILES)	inhibition of GFpNA cleavage [1]	ability of the enzyme to cleave the substrate [2]	ability of the enzyme to cleave the substrate [3]	also measured
O=S(=O)([O-])SSS(=O)(=O)[O-].[K+].[K+] [potassium tetrathionate]	no evidence of significant inhibition	–	–	–
N=C(N)NCCC[C@H](NC(=O)OCc1ccccc1)C(=O)N[C@@H](CCCNC(=N)N)C(=O)Nc1ccc2ccccc2c1 [Z-RRBNA, benzyloxycarbonyl-RRBNA] (Cbz-Arg-Arg-βNA)	–	unable to cleave	unable to cleave	–
NC(=O)CI [iodoacetamide]	no evidence of significant inhibition	–	–	inhibition at 5000 µM [4]: > 90%
N=C(N)NCCC[C@H](NC(=O)CN)C(=O)Nc1ccc([N+](=O)[O-])cc1 [GRpNA, Gly-Arg-pNA] (H-Gly-Arg-pNA)	–	–	–	activity outside the optimum range [5]: little activity
N=C(N)NCCC[C@H](NC(=O)[C@@H](N)CCCNC(=N)N)C(=O)Nc1ccc2ccccc2c1 [RRBNA, Arg-Arg-β-naphthylamide] (H-Arg-Arg-βNA)	–	able to effectively cleave	unable to cleave	activity over the pH range probed ([2]; pH 3.5 to pH 5.7): significant activity
